Data from the CheMixHub viscosity set.
Where “and” joins values, the source holds several entries; their conditions need not be identical. Equal entries are not always repeated. ± gives the uncertainty stated by the source.

Test: xn = mol fraction of the nth substance listed

For `c1ccc2ccccc2c1` + c1ccccc1, the viscosity (293.15 K, 101 kPa, x1 = 0.006242) was 0.653 ± 0.023 mPa·s, the viscosity (293.15 K, 101 kPa, x1 = 0.01216) was 0.66 ± 0.023 mPa·s and the viscosity (293.15 K, 101 kPa, x1 = 0.02495) was 0.674 ± 0.024 mPa·s. For the same compound, the viscosity (298.15 K, 101 kPa, x1 = 0.051) was 0.6565 ± 0.017 mPa·s, the viscosity (298.15 K, 101 kPa, x1 = 0.1121) was 0.7261 ± 0.019 mPa·s and the viscosity (298.15 K, 101 kPa, x1 = 0.1538) was 0.7707 ± 0.02 mPa·s. For the same compound, the viscosity (298.15 K, 101 kPa, x1 = 0.1979) was 0.8263 ± 0.022 mPa·s, the viscosity (298.15 K, 101 kPa, x1 = 0.2398) was 0.8764 ± 0.023 mPa·s and the viscosity (298.15 K, 101 kPa, x1 = 0.2476) was 0.8712 ± 0.022 mPa·s. For the same compound, the viscosity (298.15 K, 101 kPa, x1 = 0.2693) was 0.9178 ± 0.024 mPa·s, the viscosity (298.15 K, 101.33 kPa, x1 = 0.0282) was 0.6309 ± 0.0063 mPa·s and the viscosity (298.15 K, 101.33 kPa, x1 = 0.069) was 0.6732 ± 0.0066 mPa·s. It also gave a viscosity (298.15 K, 101.33 kPa, x1 = 0.0898) of 0.6932 ± 0.0068 mPa·s, a viscosity (298.15 K, 101.33 kPa, x1 = 0.1341) of 0.7423 ± 0.0072 mPa·s and a viscosity (298.15 K, 101.33 kPa, x1 = 0.1587) of 0.7733 ± 0.0075 mPa·s. For the same compound, the viscosity (298.15 K, 101.33 kPa, x1 = 0.2089) was 0.833 ± 0.008 mPa·s, the viscosity (298.15 K, 101.33 kPa, x1 = 0.25) was 0.8712 ± 0.0087 mPa·s and the viscosity (298.15 K, 101.33 kPa, x1 = 0.2533) was 0.8891 ± 0.0085 mPa·s. The viscosity (303.15 K, 101 kPa, x1 = 0.2476) was 0.8077 ± 0.02 mPa·s, the viscosity (303.15 K, 101 kPa, x1 = 0.3593) was 0.9452 ± 0.024 mPa·s and the viscosity (303.15 K, 101.33 kPa, x1 = 0.0282) was 0.5882 ± 0.0059 mPa·s. For the same compound, the viscosity (303.15 K, 101.33 kPa, x1 = 0.069) was 0.6269 ± 0.0062 mPa·s, the viscosity (303.15 K, 101.33 kPa, x1 = 0.0898) was 0.6448 ± 0.0064 mPa·s and the viscosity (303.15 K, 101.33 kPa, x1 = 0.1341) was 0.6897 ± 0.0068 mPa·s. For the same compound, the viscosity (303.15 K, 101.33 kPa, x1 = 0.1587) was 0.7181 ± 0.007 mPa·s, the viscosity (303.15 K, 101.33 kPa, x1 = 0.2089) was 0.7723 ± 0.0075 mPa·s and the viscosity (303.15 K, 101.33 kPa, x1 = 0.25) was 0.8077 ± 0.0081 mPa·s and 0.8077 ± 0.083 mPa·s. The viscosity (303.15 K, 101.33 kPa, x1 = 0.2533) was 0.8222 ± 0.0079 mPa·s, the viscosity (303.15 K, 101.33 kPa, x1 = 0.26) was 0.8211 ± 0.085 mPa·s and the viscosity (303.15 K, 101.33 kPa, x1 = 0.33) was 0.874 ± 0.09 mPa·s. For the same compound, the viscosity (303.15 K, 101.33 kPa, x1 = 0.36) was 0.9452 ± 0.0095 mPa·s and 0.9452 ± 0.098 mPa·s, the viscosity (308.15 K, 101 kPa, x1 = 0.2476) was 0.7485 ± 0.019 mPa·s and the viscosity (308.15 K, 101 kPa, x1 = 0.3593) was 0.8742 ± 0.022 mPa·s. For the same compound, the viscosity (308.15 K, 101.33 kPa, x1 = 0.25) was 0.7485 ± 0.0075 mPa·s, the viscosity (308.15 K, 101.33 kPa, x1 = 0.36) was 0.8742 ± 0.0087 mPa·s and the viscosity (313.15 K, 101 kPa, x1 = 0.006242) was 0.501 ± 0.02 mPa·s. For the same compound, the viscosity (313.15 K, 101 kPa, x1 = 0.01216) was 0.505 ± 0.02 mPa·s, the viscosity (313.15 K, 101 kPa, x1 = 0.02495) was 0.514 ± 0.02 mPa·s and the viscosity (313.15 K, 101 kPa, x1 = 0.2476) was 0.6983 ± 0.018 mPa·s. It also gave a viscosity (313.15 K, 101 kPa, x1 = 0.3593) of 0.8115 ± 0.02 mPa·s, a viscosity (313.15 K, 101.33 kPa, x1 = 0.0282) of 0.516 ± 0.0053 mPa·s and a viscosity (313.15 K, 101.33 kPa, x1 = 0.069) of 0.5478 ± 0.0055 mPa·s. The viscosity (313.15 K, 101.33 kPa, x1 = 0.0898) was 0.5665 ± 0.0057 mPa·s, the viscosity (313.15 K, 101.33 kPa, x1 = 0.1341) was 0.6017 ± 0.006 mPa·s and the viscosity (313.15 K, 101.33 kPa, x1 = 0.1587) was 0.6263 ± 0.0062 mPa·s. The viscosity (313.15 K, 101.33 kPa, x1 = 0.2089) was 0.6698 ± 0.0066 mPa·s, the viscosity (313.15 K, 101.33 kPa, x1 = 0.25) was 0.6983 ± 0.007 mPa·s and the viscosity (313.15 K, 101.33 kPa, x1 = 0.2533) was 0.72 ± 0.007 mPa·s. The viscosity (313.15 K, 101.33 kPa, x1 = 0.36) was 0.8115 ± 0.0081 mPa·s, the viscosity (318.15 K, 101 kPa, x1 = 0.2476) was 0.654 ± 0.016 mPa·s and the viscosity (318.15 K, 101 kPa, x1 = 0.3593) was 0.7546 ± 0.019 mPa·s. For the same compound, the viscosity (318.15 K, 101.33 kPa, x1 = 0.25) was 0.654 ± 0.0065 mPa·s and 0.654 ± 0.068 mPa·s, the viscosity (318.15 K, 101.33 kPa, x1 = 0.26) was 0.666 ± 0.069 mPa·s and the viscosity (318.15 K, 101.33 kPa, x1 = 0.33) was 0.7066 ± 0.073 mPa·s. For the same compound, the viscosity (318.15 K, 101.33 kPa, x1 = 0.36) was 0.7546 ± 0.0075 mPa·s and 0.7546 ± 0.078 mPa·s, the viscosity (318.15 K, 101.33 kPa, x1 = 0.418) was 0.817 ± 0.084 mPa·s and the viscosity (323.15 K, 101 kPa, x1 = 0.009498) was 0.445 ± 0.018 mPa·s. For the same compound, the viscosity (323.15 K, 101 kPa, x1 = 0.02432) was 0.454 ± 0.018 mPa·s, the viscosity (323.15 K, 101 kPa, x1 = 0.02618) was 0.456 ± 0.019 mPa·s and the viscosity (323.15 K, 101.33 kPa, x1 = 0.0282) was 0.4564 ± 0.0048 mPa·s. It also gave a viscosity (323.15 K, 101.33 kPa, x1 = 0.069) of 0.4838 ± 0.005 mPa·s, a viscosity (323.15 K, 101.33 kPa, x1 = 0.0898) of 0.4993 ± 0.0051 mPa·s and a viscosity (323.15 K, 101.33 kPa, x1 = 0.1341) of 0.529 ± 0.0054 mPa·s. The viscosity (323.15 K, 101.33 kPa, x1 = 0.1587) was 0.5509 ± 0.0056 mPa·s, the viscosity (323.15 K, 101.33 kPa, x1 = 0.2089) was 0.5871 ± 0.0059 mPa·s and the viscosity (323.15 K, 101.33 kPa, x1 = 0.2533) was 0.6319 ± 0.0063 mPa·s.

In the case of `CC(=O)N(C)c1ccccc1` + c1ccncc1, the viscosity (298.15 K, 101 kPa, x1 = 0.0361) is reported as 0.967 ± 0.19 mPa·s, the viscosity (298.15 K, 101 kPa, x1 = 0.06268) is reported as 1.022 ± 0.2 mPa·s and the viscosity (298.15 K, 101 kPa, x1 = 0.09446) is reported as 1.082 ± 0.22 mPa·s.
